This passage reports activation and EC50 results from patent US9938262B2, “Benzamides” (Merck Patent GmbH, priority 2011, dated 2018).

Structures are written as SMILES. Some results are limits rather than exact numbers.

For the first test, the target named is T1, FSHR (Homo sapiens, UniProt P23945).
T1 construct: expressed in transfected cells; host or cells: CHO (Cho-FSHR-LUC-1-1-43)
T1 sequence (P23945 18-695): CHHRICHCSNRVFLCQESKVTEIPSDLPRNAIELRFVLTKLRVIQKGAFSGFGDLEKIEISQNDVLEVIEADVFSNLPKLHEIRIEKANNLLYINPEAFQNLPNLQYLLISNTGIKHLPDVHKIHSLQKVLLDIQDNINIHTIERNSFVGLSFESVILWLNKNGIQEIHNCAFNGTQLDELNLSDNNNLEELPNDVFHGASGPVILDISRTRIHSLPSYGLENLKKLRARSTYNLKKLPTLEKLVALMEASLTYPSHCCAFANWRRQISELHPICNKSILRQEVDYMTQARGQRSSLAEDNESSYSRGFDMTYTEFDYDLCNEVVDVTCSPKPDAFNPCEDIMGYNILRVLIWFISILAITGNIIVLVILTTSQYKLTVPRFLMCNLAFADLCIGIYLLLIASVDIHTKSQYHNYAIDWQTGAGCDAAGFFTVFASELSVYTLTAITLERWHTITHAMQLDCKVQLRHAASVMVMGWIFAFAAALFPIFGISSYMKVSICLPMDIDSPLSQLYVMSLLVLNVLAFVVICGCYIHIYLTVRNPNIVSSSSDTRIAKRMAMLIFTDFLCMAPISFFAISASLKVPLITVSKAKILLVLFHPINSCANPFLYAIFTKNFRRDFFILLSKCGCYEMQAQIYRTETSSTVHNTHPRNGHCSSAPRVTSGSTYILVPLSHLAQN
T1 sequence (P01215 25-116 partner): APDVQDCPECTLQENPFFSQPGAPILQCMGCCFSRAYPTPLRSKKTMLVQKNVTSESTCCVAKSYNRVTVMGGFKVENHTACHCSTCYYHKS
T1 sequence (P01225 19-129 partner): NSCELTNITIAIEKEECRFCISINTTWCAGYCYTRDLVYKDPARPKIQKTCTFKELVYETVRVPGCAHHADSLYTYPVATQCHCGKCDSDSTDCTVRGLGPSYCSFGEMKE
In words: EC50 of cyclic AMP production in CHO FSHR cells + EC20 FSH (Assay A). In kind it is cell-based. The conditions noted are these: 1 h; 5 μM; effect relative to maximum response of the FSH standard; Table 1. The procedure, abridged:
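cAMP HTRF ratio (665/620 nm) read after 1 h, 37 °C exposure of CHO-FSHR cells to compound in presence of EC20 FSH ([…]) and IBMX 200 μM. Responses given relative to FSH standard maximum; EC50 derived.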
Turning to `Cc1ccc(N2CCN(c3ccc(C(=O)NCCCN4CCCC4=O)cc3NC(=O)c3coc(C4CC4)n3)CC2)cc1C` [Compound 252], the activation at 5 µM was 14%.

Consider `Cc1ccc(C(=O)Nc2cc(C(=O)NCCCN3CCCC3=O)ccc2N2CCN(Cc3ccccc3C(F)(F)F)[C@@H](C)C2)o1` [Compound 254], for which the activation at 5 µM was 20%.

For the compound `CC(=O)N1CCN(C(=O)c2ccc(N3CCN(c4ccccc4C)CC3)c(NC(=O)c3ccco3)c2)CC1` [Compound 23], the activation at 5 µM amounted to 4%.

With `Cc1ccccc1N1CCN(c2ccc(C(=O)NCCCN3CCCC3=O)cc2NC(=O)c2cncs2)CC1` [Compound 99], the activation at 5 µM amounted to 35%.

With `Cc1ccccc1N1CCN(c2ccc(C(=O)NCCCN3CCCC3=O)cc2NC(=O)c2cccc3ccccc23)CC1` [Compound 88], the activation at 5 µM was 34%.

In the case of `Cc1ccccc1N1CCN(c2ccc(C(=O)NCCc3c[nH]c4ccccc34)cc2NC(=O)c2ccco2)CC1` [Compound 10, Furan-2-carboxylic acid [5-[2-(1H-indol-3-yl)-ethylcarbamoyl]-2-(4-o-tolyl-piperazin-1-yl)-phenyl]-amide], the activation at 5 µM was determined as 39%.

As for `CCNc1nc(C)c(C(=O)Nc2cc(C(=O)NCCCN3CCCC3=O)ccc2N2CCN(c3ccccc3C)CC2)s1` [Compound 100], the activation at 5 µM is 12%.

With `Cc1ccccc1N1CCN(c2ccc(C(=O)N3CCN(C(=O)OC(C)(C)C)CC3)cc2NC(=O)c2ccco2)CC1` [Compound 12], the activation at 5 µM turned out to be 7%.

The test is the same for the next values; noted with them: CHO FSHR cells + EC20 FSH; Table 1; read-out: Assay A EC50 of cyclic AMP production.
`Cc1ccccc1N1CCN(c2ccc(C(=O)NCCCN3CCCC3=O)cc2NC(=O)c2ccc(C#N)cc2)CC1` [Compound 33]: the EC50 is 1000 to 10000 nM.

On to `CCOc1cc(CCNC(=O)c2ccc(N3CCN(c4ccccc4C)CC3)c(NC(=O)c3ccco3)c2)ccc1OC` [Compound 65], for which the EC50 lay within 1000 to 10000 nM.

Consider `Cc1ccccc1N1CCN(c2ccc(C(=O)NCCCN3CCCC3=O)cc2NC(=O)c2ccc(Cl)cn2)CC1` [Compound 129], for which the EC50 lay in the range of 100 to 1000 nM.

Turning to `Cc1cnc(C(=O)Nc2cc(C(=O)NCCCN3CCCC3=O)ccc2N2CCN(c3ccccc3C)CC2)s1` [Compound 205], the EC50 was in the range of 100 to 1000 nM.

Turning to `Cc1ccccc1C(=O)Nc1cc(C(=O)NCCCN2CCCC2=O)ccc1N1CCN(c2ccccc2C)CC1` [Compound 111], the EC50 lay within 1000 to 10000 nM.

On to `Cc1ccc(C(=O)Nc2cc(C(=O)NCCc3c[nH]cn3)ccc2N2CCN(c3ccccc3C)CC2)o1` [Compound 185, 5-Methyl-furan-2-carboxylic acid [5-[2-(1H-imidazol-4-yl)-ethylcarbamoyl]-2-(4-o-tolyl-piperazin-1-yl)-phenyl]-amide], for which the EC50 lay in the range of 1000 to 10000 nM.

On to `CCc1ncc(C(=O)Nc2cc(C(=O)NCCCN3CCCC3=O)ccc2N2CCN(c3ccccc3C)CC2)s1` [Compound 200], for which the 50% effective concentration (EC50) is 1000 to 10000 nM.

Regarding `Cc1ccccc1N1CCN(c2ccc(C(=O)NCCCN3CCCC3=O)cc2NC(=O)c2cccc(O)c2)CC1` [Compound 146], the EC50 is greater than 10000 nM.

With `Cc1ccccc1N1CCN(c2ccc(C(=O)N[C@@H](C)c3ccccc3)cc2NC(=O)c2ccco2)CC1` [Compound 11, furan-2-carboxylic acid [5-((S)-1-phenyl-ethylcarbamoyl)-2-(4-o-tolyl-piperazin-1-yl)-phenyl]-amide], the EC50 lay in the range of 100 to 1000 nM.

For `Cc1ccccc1N1CCN(c2ccc(C(=O)NCCCN3CCCC3=O)cc2NC(=O)c2csc(Br)n2)CC1` [Compound 101], the EC50 is 1000 to 10000 nM.

Consider `Cc1ccccc1N1CCN(c2ccc(C(=O)NCCCN3CCCC3=O)cc2NC(=O)C(C)(C)C)CC1` [Compound 177, 3-(2,2-Dimethyl-propionylamino)-N-[3-(2-oxo-pyrrolidin-1-yl)-propyl]-4-(4-o-tolyl-piperazin-1-yl)-benzamide], for which the EC50 lay within 1000 to 10000 nM.

As for `Cc1ccc(C(=O)Nc2cc(C(=O)NCCCN3CCCC3=O)ccc2N2CCCN(c3ccccc3C)CC2)o1` [Compound 194, 5-Methyl-furan-2-carboxylic acid [5-[3-(2-oxo-pyrrolidin-1-yl)-propylcarbamoyl]-2-(4-o-tolyl-[1,4]diazepan-1-yl)-phenyl]-amide], the EC50 is 1000 to 10000 nM.

With `Cc1ccccc1N1CCN(c2ccc(C(=O)NCc3cccc(-c4c[nH]cn4)c3)cc2NC(=O)c2ccco2)CC1` [Compound 236], the EC50 lay within 100 to 1000 nM.

Take `CC(=O)Nc1ccc(C(=O)Nc2cc(C(=O)NCCCN3CCCC3=O)ccc2N2CCN(c3ccccc3C)CC2)o1` [Compound 164]: the EC50 fell in the range of 1000 to 10000 nM.

The test is the same for the next values; noted with them: CHO FSHR cells + EC20 FSH; Table 2; read-out: Assay A EC50 of cyclic AMP production.
In the case of `Cc1ccc(C(=O)Nc2cc(C(=O)N3CC4(COC4)C3)ccc2N2CCN(c3ccccc3C)CC2)o1` [Compound 591], the EC50 is greater than 10000 nM.

Take `Cc1ccc(C(=O)Nc2cc(C(=O)NCCc3cn(C)cn3)ccc2N2CCN(c3ncccc3C)CC2)o1` [Compound 464]: the EC50 lay in the range of 1000 to 10000 nM.

For the compound `Cc1ccccc1N1CCN(c2ccc(C(=O)NCCCNC(=O)OC(C)(C)C)cc2NC(=O)c2coc(C3CC3)n2)CC1` [Compound 416], the EC50 was 100 to 1000 nM.

On to `Cc1ccccc1N1CCN(c2ccc(C(=O)NCC(C)CN3CCCC3=O)cc2NC(=O)c2ccco2)CC1` (stereo not shown) [Compound 280], for which the EC50 was in the range of 100 to 1000 nM.

Take `CCCNC(=O)NCCCNC(=O)c1ccc(N2CCN(c3ccccc3C)CC2)c(NC(=O)c2coc(C3CC3)n2)c1` [Compound 433]: the EC50 was 100 to 1000 nM.

For `Cc1ccccc1N1CCN(c2ccc(C(=O)Nc3ccc(C(C)(C)C#N)cc3)cc2NC(=O)c2coc(C3CC3)n2)CC1` [Compound 409], the EC50 is greater than 10000 nM.

For the compound `Cc1ccc(C(=O)Nc2cc(C(=O)N3CCC4(COC4)C3)ccc2N2CCN(c3ccccc3C)CC2)o1` [Compound 593], the EC50 was 1000 to 10000 nM.

Regarding `Cc1ccccc1N1CCN(c2ccc(C(=O)NCCCN3C(=O)CSC3=O)cc2NC(=O)c2coc(C3CC3)n2)CC1` [Compound 289], the EC50 lay within 100 to 1000 nM.

For `Cc1ccccc1C1=CCN(c2ccc(C(=O)NCCCN3CCCC3=O)cc2NC(=O)c2coc(C3CC3)n2)CC1` [Compound 414], the EC50 was 100 to 1000 nM.

Take `COc1cc(CNC(=O)c2ccc(N3CCN(c4ccccc4C)CC3)c(NC(=O)c3coc(C4CC4)n3)c2)cc(OC)c1` [Compound 295]: the EC50 was in the range of 100 to 1000 nM.

Take `Cc1ccccc1N1CCN(c2ccc(C(=O)NC[C@H](O)c3ccccc3)cc2NC(=O)c2ccco2)CC1` [Compound 585]: the EC50 is less than 100 nM.

Consider `Cc1ccccc1N1CCN(c2ccc(C(=O)NCCCNC(=O)c3ccccc3)cc2NC(=O)c2coc(C3CC3)n2)CC1` [Compound 434], for which the EC50 is 100 to 1000 nM.

As for `Cc1ccccc1N1CCN(c2ccc(C(=O)NCCCN3C(=O)CCC3=O)cc2NC(=O)c2ccc(Br)o2)CC1` [Compound 384], the concentration for a half-maximal effect (EC50) was in the range of 100 to 1000 nM.

Regarding `Cc1ccccc1N1CCN(c2ccc(C(=O)NCc3cccc(C(F)(F)F)c3)cc2NC(=O)c2coc(C3CC3)n2)CC1` [Compound 528], the EC50 lay within 1000 to 10000 nM.

Consider `Cc1ccc(C(=O)Nc2cc(C(=O)NCCCN3C(=O)OCC3(C)C)ccc2N2CCN(c3ccccc3C)CC2)o1` [Compound 369], for which the EC50 lay in the range of 1000 to 10000 nM.

With `Cc1ccc(C(=O)Nc2cc(C(=O)NCCCN3CCCC3=O)ccc2N2CCN(c3cccc(C)c3C)CC2)o1` [Compound 521], the EC50 lay in the range of 100 to 1000 nM.

In the case of `Cc1ccccc1N1CCN(c2ccc(C(=O)NCCc3ccc(CNC(=O)OC(C)(C)C)cc3)cc2NC(=O)c2coc(C3CC3)n2)CC1` [Compound 489], the EC50 was 1000 to 10000 nM.

Turning to `CCN(C)Cc1cccc(CNC(=O)c2ccc(N3CCN(c4ccccc4C)CC3)c(NC(=O)c3ccco3)c2)c1` [Compound 478], the EC50 was less than 100 nM.

Take `Cc1ccccc1N1CCN(c2ccc(C(=O)NCCc3cnc[nH]3)cc2NC(=O)C2CC2)CC1` [Compound 302]: the EC50 is 1000 to 10000 nM.

With `Cc1ccc(C(=O)Nc2cc(C(=O)NCCCN3CC(C)OC3=O)ccc2N2CCN(c3ccccc3C)CC2)o1` (stereo not shown) [Compound 370], the EC50 lay in the range of 1000 to 10000 nM.

Consider `Cc1ccccc1N1CCN(c2ccc(C(=O)NCCCc3scnc3C)cc2NC(=O)c2coc(C3CC3)n2)CC1` [Compound 391], for which the EC50 was 100 to 1000 nM.

As to `CCCNC(=O)NCCCNC(=O)c1ccc(N2CCN(c3ccccc3C)CC2)c(NC(=O)c2ccco2)c1` [Compound 490], the EC50 was less than 100 nM.

`Cc1ccccc1N1CCN(c2ccc(C(=O)NCc3cccc(C(F)(F)F)c3)cc2NC(=O)c2ccco2)CC1` [Compound 527]: the EC50 lay in the range of 100 to 1000 nM.

With `NC1(c2ccccc2)CCN(c2ccc(C(=O)NCCCN3CCCC3=O)cc2NC(=O)c2coc(C3CC3)n2)CC1` [Compound 401], the EC50 is greater than 10000 nM.

On to `Cc1cc(F)ccc1N1CCN(c2ccc(C(=O)NCCCN3CCCC3=O)cc2NC(=O)c2coc(C3CC3)n2)CC1` [Compound 312], for which the EC50 lay within 100 to 1000 nM.

For `Cc1ccccc1N1CCN(c2ccc(C(=O)NCCCN3C(=O)[C@H]4C[C@@H]3C(O)C4O)cc2NC(=O)c2ccco2)CC1` (stereo partly shown) [Compound 477], the EC50 is less than 100 nM.

Consider `Cc1ccccc1N1CCN(c2ccc(C(=O)NC3CCN(C4CCCC4)C3)cc2NC(=O)c2ccco2)CC1` (stereo not shown) [Compound 345], for which the EC50 fell in the range of 1000 to 10000 nM.

Consider `CCN(CC)Cc1cccc(CNC(=O)c2ccc(N3CCN(c4ccccc4C)CC3)c(NC(=O)c3coc(C4CC4)n3)c2)c1` [Compound 536], for which the EC50 fell in the range of 100 to 1000 nM.

`Cc1ccccc1N1CCN(c2ccc(C(=O)NCCCN3CCCC3=O)cc2NC(=O)c2cncn2C)CC1` [Compound 421]: the 50% effective concentration (EC50) was greater than 10000 nM.

`Cc1ccccc1N1CCN(c2ccc(C(=O)NCCc3ccccc3C(N)=O)cc2NC(=O)c2coc(C3CC3)n2)CC1` [Compound 411]: the EC50 is 100 to 1000 nM.

With `Cc1ccccc1N1CCN(c2ccc(C(=O)NC3(c4cccc(C(=O)O)c4)CC3)cc2NC(=O)c2ccco2)CC1` [Compound 267], the EC50 lay in the range of 1000 to 10000 nM.

Take `Cc1ccccc1N1CCN(c2ccc(C(=O)NCC3C[C@@H]4CC[C@H]3C4)cc2NC(=O)c2ccco2)CC1` (stereo partly shown) [Compound 380]: the half-maximal effective concentration (EC50) fell in the range of 100 to 1000 nM.

Turning to `CC(C)C(=O)N1CCN(c2ccc(C(=O)NCCCN3CCCC3=O)cc2NC(=O)c2coc(C3CC3)n2)CC1` [Compound 432], the concentration for a half-maximal effect (EC50) lay within 1000 to 10000 nM.

In general, EC50 refers to the concentration needed to bring the measured effect to its halfway point.
